Measured values published in patent US20250237650A1 (priority 2021, published 2025).

How the values were obtained:
[1] = tested on: WT, Alpha, Beta, Delta, and Omicron BA.1 spike proteins; format: binding, SARS-CoV-2
[2] = tested on: full-length trimeric Alpha, Beta, and Delta spikes; format: binding, SARS-CoV-2

Row | Substance | binding affinities to VOC spikes (in words) [1] | binding affinity to variant spikes relative to WT spike [2]
1 | ACE2 | within nanomolar range | –
2 | heparin [HEP15, reference compound] | – | comparable binding affinity to WT spike
3 | heparin [reference compound] | an increase in affinity between HEP and Omicron spike over Delta and other VOC spikes | –
